According to US9809597B2, “Ganciclovir derivatives for modulating innate and adaptive immunity and for use in immunotherapy” (The Board of Trustees of the Leland Stanford Junior …, priority 2015, dated 2017):

Columns and labels:
[1] = system: wildtype and STING^gt/gt mice with EAE; assay: EAE induction and analysis; type: in vivo, mouse
primary microglia = assay: RT-PCR for CXCL10 and IFNβ transcripts in primary microglia (wildtype, tk KO, STING^gt/gt); type: cell-based, mouse; conditions: 200 μM, 6 hours
Procedure: Mice were housed and bred according to the Institutional Animal Care and Use Committee guidelines. Primary microglia and astrocytes were isolated from P0-P3 C57BL/6 mouse pups. Cortices from pups were isolated, meninges removed and tissue was dissociated using a 25-gauge needle. Two cortices were plated on each poly-L-lysine coated T-75 flasks in DMEM/F12+10% FBS+1% penicillin/streptomycin. Microglia and astrocyte co-cultures were maintained for 3 weeks, after which microglia were isolated using CD11b magnetic beads (Miltenyi Biotec) according to the manufacturer's instructions. Isolated microglia were allowed to recover for 1-2 days and processed for cellular assays described above.
For tk KO experiments only, microglia were isolated from adult mouse brains using the neural dissociation kit (Miltenyi Biotec) according to manufacturer's protocol followed by CD11b magnetic bead enrichment. Isolated cells were cultured for 3-4 days before the experiment.
(§1) RNA was isolated from cells using RNeasy mini kit from Qiagen. DNased RNA was converted to cDNA using SuperScript III reverse transcriptase kit (Life technologies). The cDNA was used to quantify specific targets using SYBR green in Roche Lightcycler 480. ΔΔCt values normalized against the experimental control to determine fold change in mRNA for each sample compared to untreated or vehicle treated control. β-actin or Ubc or both were used as housekeeping genes. Primer sequences were obtained from PrimerBank. Fold change is shown compared to the vehicle treated or untreated cells, unless otherwise noted.

[2] = system: wildtype and STING^gt/gt mice with EAE; conditions: mouse model for multiple sclerosis, therapeutic doses equivalent to those in humans (Ding et al. 2014); cited from earlier work
BV-2 microglia [3] = assay: Secreted factors analyzed by Luminex array in BV-2 supernatants; type: cell-based, mouse
Procedure: (§2) BV-2 mouse microglia cells were grown in DMEM+10% FBS and THP-1 human monocyte cells were grown in RPMI-40+10% FBS+0.05 mM β-mercaptoethanol at 37° C., 5% CO2. Adherent cells were split using 1×TrypLE (Gibco). For cellular assays, cells were treated with the following concentrations of drugs as indicated in the DMEM without serum: 100-200 μM ganciclovir, 10 ng/ml IFNγ (R&D systems), 100 ng/ml LPS (Sigma-Aldrich), 1-10 μM Fludarabine (Selleckchem), 1 μM Ruxolitinib (Selleckchem), 1 μM TG-101348 (Selleckchem), 1 μM Amlexanox (Tocris bioscience) unless otherwise noted. All experiments were run in triplicates and replicated at least 3 times with cell lines and at least twice with primary microglia. Average data are shown for cell lines and representative data are shown for primary cells. Secreted signaling proteins were measured in supernatants from cultured cells stimulated with GCV and conditioned for 24 hours in the absence of serum using two independent Luminex arrays (Human Immune Monitoring Center, Stanford and Eve technologies, Canada). Nitrite assay was performed on conditioned culture supernatants of cells stimulated with drugs for 24 hours using the Griess Reagent System (Promega) according to manufacturer's instructions. To assess cellular viability, cell confluence was measured using an automated microscope (Cellavista; Roche).

BV-2 cells = assay: RT-PCR for CXCL10 and IFNβ transcripts in BV-2 cells; type: cell-based, mouse
Procedure: as §2, §1

[4] = system: IFNγ/LPS stimulated BV-2 microglia; assay: Nitrite assay (Griess) on culture supernatants; type: cell-based, mouse; conditions: 24 hours
Procedure: as §2

BV-2 microglia [5] = assay: Cell viability (cell confluence, automated microscope); type: cell-based, mouse; conditions: GCV dose response
Procedure: as §2

[6] = STING^gt/gt mice with EAE, day 18
[7] = STING^gt/gt mice, 18 days following disease induction
[8] = cerebella of wildtype mice with EAE, day 18
[9] = adult tk1 knockout primary microglia
[10] = primary microglia lacking functional STING
[11] = BV-2 culture supernatants, no exogenous stimulation, 24 hours GCV

Nc1nc(O)c2ncn(COC(CO)CO)c2n1 [GCV, Ganciclovir]
overall Iba1 immunoreactivity [1, 6]: trend towards reducing | overall cell proliferation [1, 6]: no reduction | proliferating T-cells [1, 6]: no reduction | proliferating microglia [1, 6]: no reduction | disease severity and incidence compared to untreated mice [1, 7]: not significantly different | lethality compared to untreated mice [1, 7]: even higher | effect on EAE in mice lacking STING ([1]; STING^gt/gt mice, GCV 100 mg/kg daily): only partially ameliorated EAE during the early phase of disease | CD3+BrDU+ proliferating T-cells [1, 8]: did not change | Iba1+BrDU+ proliferating microglia [1, 8]: significantly decreased | numbers of BrDU+ proliferating cells [1, 8]: significantly decreased | numbers of Iba1+ microglia [1, 8]: significantly decreased | lethality ([1]; wildtype mice, 18 days following disease induction, untreated 20%): 0% | disease incidence ([1]; wildtype mice, 18 days following disease induction, untreated 100%): 40% | disease severity (EAE score) ([1]; wildtype mice, GCV 100 mg/kg intra-peritoneally daily from day 3): drastically reduces disease severity | CXCL10 mRNA in microglia from tk1 knockout mice (primary microglia; [9]): at levels seen in treated wild type microglia | IFNβ mRNA in microglia from tk1 knockout mice (primary microglia; [9]): at levels seen in treated wild type microglia | induction of CXCL10 mRNA in STING^gt/gt primary microglia (primary microglia; [10]): failed to induce | induction of IFNβ mRNA in STING^gt/gt primary microglia (primary microglia; [10]): failed to induce | disease course and pathology of EAE [2]: ameliorates the disease course and pathology | CCL2 (BV-2 microglia [3]; 100 μM GCV, 24 hours): 28.8 ± 1.08 pg/mL | IL12p70 (BV-2 microglia [3]; 100 μM GCV, 24 hours): 0.34 ± 0.05 pg/mL | IL17A (BV-2 microglia [3]; 100 μM GCV, 24 hours): 3.5 ± 0.12 pg/mL | MCSF (BV-2 microglia [3]; 100 μM GCV, 24 hours): 23.76 ± 3.77 pg/mL | MIP1β (BV-2 microglia [3]; 100 μM GCV, 24 hours): 537.14 ± 449.94 ng/mL | MIP2 (BV-2 microglia [3]; 100 μM GCV, 24 hours): 14.77 ± 1.50 pg/mL | TGFβ (BV-2 microglia [3]; 100 μM GCV, 24 hours): 6.04 ± 0.58 pg/mL | VEGF (BV-2 microglia [3]; 100 μM GCV, 24 hours): 1.65 ± 0.51 pg/mL | CCL2 (BV-2 microglia [3]; 200 μM GCV, 24 hours): 28.25 ± 2.19 pg/mL | IL12p70 (BV-2 microglia [3]; 200 μM GCV, 24 hours): 0.16 ± 0.11 pg/mL | IL17A (BV-2 microglia [3]; 200 μM GCV, 24 hours): 2.54 ± 1.28 pg/mL | IL22 (BV-2 microglia [3]; 200 μM GCV, 24 hours): 3.09 ± 2.25 pg/mL | MCSF (BV-2 microglia [3]; 200 μM GCV, 24 hours): 25.48 ± 8.28 pg/mL | MIP1β (BV-2 microglia [3]; 200 μM GCV, 24 hours): 4.13 ± 3.36 ng/mL | MIP2 (BV-2 microglia [3]; 200 μM GCV, 24 hours): 13.02 ± 4.25 pg/mL | TGFβ (BV-2 microglia [3]; 200 μM GCV, 24 hours): 5.36 ± 3.30 pg/mL | VEGF (BV-2 microglia [3]; 200 μM GCV, 24 hours): 1.56 ± 0.27 pg/mL | secreted CCL5 protein (BV-2 microglia [3]; [11]): significantly increasing | secreted CXCL10 protein (BV-2 microglia [3]; [11]): significantly increasing | secreted IL-18 protein (BV-2 microglia [3]; [11]): decreasing | secreted IL-22 protein (BV-2 microglia [3]; [11]): significantly increasing | secreted TNFα protein (BV-2 microglia [3]; [11]): significantly increasing | induction of CXCL10 mRNA on neutralization of IFNβ with an antibody (BV-2 cells; BV-2 cells, 200 μM with anti-IFNβ antibody, 4 hours): partly reduced | EC50 (BV-2 cells; Mus musculus, BV-2 microglia, dose response, read-out: EC50, increase of CXCL10 transcript): ~160 µM | induction of IFNβ transcript (BV-2 cells; microglia (BV-2, primary), 200 μM): induced | microglial nitric oxide production (nitrite assay) [4]: reduction | toxicity (cell viability) (BV-2 microglia [5]): without causing any toxicity
